From patent publication US11459356B2, “Neuronal nicotinic acetylcholine receptor-targeting polypeptide and use thereof” (priority 2021, dated 2022)
Positions of bridges follow the written chain, without caps; N, C: chain ends. No end group written: not given here.

System: human nAChR
Assay: Calcium response of nAChR-overexpressing CN21 cells pre-incubated with polypeptide
Format: cell-based
Conditions: CN21 cells expressing human nAChR; polypeptide 10^-11-10^-5 M; 6 hours incubation; FIG. 5
Protocol: The bioactivity of polypeptide nAChR_BP was assessed by using […] expressing human nAChR. The CN21 cells were incubated in 12-well plates one day prior. After 25 hours of incubation, the media were removed and new media containing various concentrations (10^−11-10^−5 M) of the polypeptide were added to incubate the cells. Six hours later, concentrations of calcium ion were measured using a kit, such that the activity of nAChR_BP was determined in vitro by assessing the antagonism of the nAChR mediated increase of [Ca2+] in CN21 cells.

Substance: nAChR_BP: novel polypeptide with amino acid sequence of SEQ ID NO: 1 that targets neuronal nicotinic acetylcholine receptor (ACCLFNCHSWVGC; disulfide 2-13, 3-7)
- antagonism of the nAChR mediated increase of [Ca2+] in CN21 cells: capable of significantly inhibiting nAChRs
